In brackets after ≈: the same amount, converted by molar mass. Several values for one entry are separate records, joined by “and”; a condition that tells them apart may be missing. Equal entries are not always repeated. Where two headings read alike, the source gives them in different places.
Experiments:
[1] = test system: MRSA USA300 strain NRS384; experiment: Efficacy, neutropenic mouse thigh infection; type: in vivo, Staphylococcus aureus (in CD1 mice); conditions: neutropenic mice, individual thighs, 23 h post treatment
Method: (§1) Mouse studies were performed using pathogen-free CD1 mice (ICR), a well characterized outbred murine strain (supplied by Charles River, Margate UK). All mice were male and weighed 11-15 gram upon arrival. and were allowed to acclimatize for at least 7 days prior to study initiation. Mice were individually housed in sterilized ventilated cages supplied with HEPA filtered sterile air and aspen chip bedding (changed a minimum of once a week). Food and water was available ad libitum. The room temperature was 22° C. 1° C., with a 60% relative humidity and a maximum background noise of 56 dB. Mice were exposed to a 12 h light/dark cycle.
Mice were made neutropenic by a subcutaneous injection of 150 mg kg^−1 and 100 mg kg^−1 cyclophosphamide 4 days and 1 day before infection respectively. Mice were infected in both thighs with MRSA USA300 strain NRS384 (1.47×10^6 CFU mL-1, 7.33×10^4 CFU per thigh) intramuscularly under temporary anesthesia. […] Pretreatment group was euthanized one hour after infection and the other treatment groups were euthanized […]. Weighted thighs were homogenized and cultured on MSA agar at 37° C. for 18-24 h followed by colony counting. Each group consisted of n=6 mice with both thighs infected (n=12 thighs per treatment group) and each thigh was treated as a separate sample. Data analysis was done with StatsDirect software v. 3.2.8 using non-parametric statistical models (Kruskal-Wallis using Conover-Inman to make all pairwise comparisons between groups).
Colony forming units in neutropenic mice infected in each thigh with MRSA followed 1 h later by the first subcutaneous dose of antibiotic at concentrations indicated and subsequently the same dose at indicated intervals, with sacrifice and bacterial load determination in homogenized thighs at 23 h post treatment (24 h post infection). […] Data are mean±SEM (n=12, six mice per group, two thighs per mouse).

E. faecium E155 = conditions: Enterococcus faecium E155, strain description; cited from earlier work
MRSA USA 300 = experiment: Resistance development serial passage assay; type: cell-based, Staphylococcus aureus; conditions: MRSA serially passaged over 30 days in sub-lethal antibiotic concentrations
Method: (§2) FIG. 3 illustrates the results obtained when selected compounds were assessed using a resistance development serial passage assay. A) Daily fold-increase of MIC compared to initial MIC against MRSA USA 300 grown in sub-lethal concentrations of daptomycin, compound 5 or compound 16 over 30 days. B). Daily fold-increase of MIC compared to initial MIC against VRE E155 grown in sub-lethal concentrations of daptomycin, compound 5 or compound 16 over 30 days.
(§3) From glycerol stocks, bacterial strains were cultured on blood agar plates and incubated overnight at 37° C. A single colony was grown to exponential phase (OD600=0.5) in TSB+0.002% p80 and diluted 1:100 in fresh media. In polypropylene 96-well microtiter plates, antibiotics were added in biological triplicates and serial diluted 2-fold by transfer and mixing from one well to the next to achieve a final volume of 50 μL per well. An equal volume of bacterial suspension was added to the wells and plates were incubated overnight at 37° C. […] This procedure was repeated for 30 days and the MIC was recorded daily. Cultures containing daptomycin were supplemented with 50 mg L^−1 CaCl2 and 10 mg L^−1 MgSO4. The experiment was performed in biological replicates and for each replicate the MIC was determined from the median of a minimum of triplicates.

VRE E155 = experiment: Resistance development serial passage assay; type: cell-based, Enterococcus faecium; conditions: VanA-type VRE strain serially passaged over 30 days in sub-lethal antibiotic concentrations
Method: as §2, §3

[2] = Tolerability in naïve mice; type: in vivo; conditions: 100 mg/kg (SC), two mice
Method: as §1
Tolerability of compound 5 was assessed at 100 mg kg^−1 subcutaneous injection (in 10% DMSO in water for injection) in naïve mice (n=2) that were not immunosuppressed or infected.

PK in naïve mice = type: in vivo; conditions: mouse, 3 mg kg^−1 subcutaneous; for Cmax: read-out: C0/Cmax
Method: as §1
Test article 5 was administered at 3 mg kg^−1 subcutaneously in naïve mice (n=3) that were not immunosuppressed or infected. Whole blood was collected from the tail vein at 5 min, 15 min, 30 min, 1 h, 2 h, 4 h and 8 h. The last sample was taken as a terminal cardiac puncture.

## CN[C@H](CC(C)C)C(=O)N[C@H]1C(=O)N[C@@H](CC(N)=O)C(=O)N[C@H]2C(=O)N[C@H]3C(=O)N[C@H](C(=O)N[C@H](C(=O)O)c4cc(O)cc(O)c4-c4cc3ccc4O)[C@H](O)c3ccc(c(Cl)c3)Oc3cc2cc(c3O[C@@H]2O[C@H](CO)[C@@H](O)[C@H](O)[C@H]2O[C@H]2C[C@](C)(N)[C@H](O)[C@H](C)O2)Oc2ccc(cc2Cl)[C@H]1O [Vancomycin, reference compound]
[1]; 25 mg kg^−1 q12h subcutaneous
  Thigh burden: 2023 CFU g^−1 and 1148 CFU g^−1 and 142564 CFU g^−1 and 283390 CFU g^−1 and 1204 CFU g^−1 and 310 CFU g^−1 and BLD and 6736 CFU g^−1 and 106 CFU g^−1 and 825 CFU g^−1 and 1030 CFU g^−1
E. faecium E155
  MIC vancomycin (strain description): 1020 µg/mL (≈ 707 µM)

## CCCCCCCNC(N)=Nc1ccc(CN[C@@]2(C)C[C@H](O[C@H]3[C@H](Oc4c5cc6cc4Oc4ccc(cc4Cl)[C@@H](O)[C@@H](NC(=O)[C@@H](CC(C)C)NC)C(=O)N[C@@H](CC(N)=O)C(=O)N[C@H]6C(=O)N[C@H]4C(=O)N[C@H](C(=O)N[C@H](C(=O)O)c6cc(O)cc(O)c6-c6cc4ccc6O)[C@H](O)c4ccc(c(Cl)c4)O5)O[C@H](CO)[C@@H](O)[C@@H]3O)O[C@@H](C)[C@H]2O)cc1 [Compound 5]
MRSA USA 300
  resistance induction, fold-increase of MIC compared to initial MIC: did not induce resistance
VRE E155
  resistance induction, fold-increase of MIC compared to initial MIC: low levels of resistance induction
[2]
  adverse effects and gross morphology: No adverse effects and normal gross morphology
  tolerability: well tolerated
PK in naïve mice; Mean/Median (n=3)
  AUC0-t: 3.134 µM·h
  AUC % Extrapolation to infinity: 1.9%
  C0/Cmax: 1813 ng/mL
  CL/CL_F: 9.30 mL/min/kg
  Clast: 54.6 ng/mL
  t1/2: 1.22 h
  tlast: 8.00 h
  tmax: 1.00 h
  Cmax: 1070 nM
PK in naïve mice; individual samples 1-3
  AUC0-t: 3.238 µM·h and 3.368 µM·h and 2.797 µM·h
  AUC % Extrapolation to infinity: 3.1% and 0.9% and 1.6%
  AUCinf: 5664 ng hr mL^−1 and 5759 ng hr mL^−1 and 4814 ng hr mL^−1 and 3342 nM hr and 3398 nM hr and 2841 nM hr
  C0/Cmax: 1989 ng/mL and 1903 ng/mL and 1546 ng/mL
  CL/CL_F: 9 mL min^−1 kg^−1 (2×) and 10 mL min^−1 kg^−1
  Clast: 85.3 ng/mL and 34.4 ng/mL and 44.2 ng/mL
  t1/2: 1.43 h and 1.05 h and 1.17 h
  tlast: 8.00 h
  tmax: 1.00 h (2×) and 2.00 h
  Cmax: 1170 nM and 1120 nM and 912 nM
[1]; 3 mg kg^−1 q6h subcutaneous
  Thigh burden: 113 CFU g^−1 (2×) and 368 CFU g^−1 and 456 CFU g^−1 and 9139 CFU g^−1 and 666 CFU g^−1 and 350 CFU g^−1 and 587 CFU g^−1 and 75 CFU g^−1 and 42132 CFU g^−1 and 7735 CFU g^−1 and 3885 CFU g^−1
[1]; 10 mg kg^−1 q6h subcutaneous
  Thigh burden: 368 CFU g^−1 and 35 CFU g^−1 and 77 CFU g^−1 and 96 CFU g^−1 and 76 CFU g^−1 and 40 CFU g^−1 and BLD (2×) and 158 CFU g^−1 and 7984 CFU g^−1 and 81 CFU g^−1 and 34 CFU g^−1

— patent US20230174584A1, “Antibiotic Compounds” (priority 2019, published 2023)
